First: O=C(O)Cc1c(-c2ccco2)nn(-c2ccccc2)c1-c1ccco1
Second: CCOC(=O)c1cn(-c2ccccc2)nc1OCc1ccc(OCc2nc(-c3ccco3)oc2C)c(OC)c1
The melting point of the first is higher: 199 to 202 °C for the first, 150 to 151 °C for the second.

First: CNc1ccc(C(=O)Nc2c(C)cccc2C)cn1
Second: CC(=O)c1c(NC(=O)c2ccc(C)cc2)cccc1C(F)(F)F
The melting point of the first is higher: 207 to 209 °C for the first, 171 °C for the second.

First: CCC(=O)Oc1ccc(-c2nn(C3CCCC3)c3c(F)cccc23)cc1
Second: CC(C)Oc1ccc(-c2noc(-c3ccc(CN4CC(C(=O)O)C4)cc3)n2)cc1Cl
The melting point of the first is lower: 60 to 61 °C for the first, 195 to 196 °C for the second.

First: O=C1Oc2ccccc2C1c1ccccc1 (stereo unspecified)
Second: Cc1nn(S(=O)Oc2ccccc2)c2ccccc12 (stereo unspecified)
The melting point of the first is lower: 109 to 111 °C for the first, 141 to 143 °C for the second.

First: NC(=O)c1ccc(-c2cccc3cc(Cc4cccc(C(F)(F)F)c4)sc23)nc1
Second: COCCNC(=O)c1cc(C)nc(-c2cccc3cc(Cc4cccc(C(F)(F)F)c4)sc23)c1
The melting point of the first is higher: 222 to 223 °C for the first, 115 to 116 °C for the second.

First: Brc1ccc2c(c1)[nH]c1cc(Br)ccc12
Second: S=C1Nc2cc(Br)ccc2N2CCc3cccc1c32
The melting point of the first is higher: 224 to 225 °C for the first, 196 to 197 °C for the second.

First: C=Cc1cnc(Nc2ccc(C#N)cc2)nc1Nc1c(C)cc(C)cc1C
Second: Cc1cc(F)ccc1Nc1nc(N(C)c2ccccc2)c2cc(OCCN(C)C)ccc2n1
The melting point of the first is higher: 237 to 242 °C for the first, 112 to 114 °C for the second.

Compared with `CC(C)(C)NS(=O)(=O)c1cnc(-c2cn(-c3nc(-c4ccc(Cl)cc4)cc(C(F)(F)F)n3)cn2)s1`, `O=S(=O)(Nc1ccc(C(F)(F)F)cc1I)c1ccccc1` is lower in melting point: 261 °C for the first, 84 to 86 °C for the second.

First: CP1(=O)c2ccccc2CN1c1ccccc1 (stereo unspecified)
Second: c1ccc(N2c3ccccc3Sc3ccccc32)cc1
The melting point of the first is higher: 94 to 97 °C for the first, 93 to 94 °C for the second.

First: C=CCOC(=O)OCN1C(=O)C(c2cn(C)c3ccccc23)=C(c2cn(C)c3cc([N+](=O)[O-])ccc23)C1=O
Second: CC(C)CC1(C(CCN2C(=O)c3ccc4c(ccc5ccccc54)c3C2=O)C(=O)NO)CCN(CCc2ccccc2)C1=O (stereo unspecified)
The melting point of the first is lower: 191 to 194 °C for the first, 203 to 205 °C for the second.

First: COc1cccc(C(=O)c2cccc(Cl)c2)c1
Second: COc1ccc2[nH]c(C(=O)c3ccc(Cl)cc3)c(CC(=O)O)c2c1
The melting point of the first is lower: 52 °C for the first, 200 to 204 °C for the second.

First: CCNC(=O)C(I)=C(Br)I
Second: COC(=O)C(O)P(C)(C)=O (stereo unspecified)
The melting point of the first is higher: 154 to 155 °C for the first, 84 to 86 °C for the second.

First: COC(=O)c1cc(NC(=O)c2ccccc2)c2cc(Cc3ccc(F)cc3)cnc2c1O
Second: CCc1cnc2c(NC(=O)c3c(Cl)cccc3Cl)cccc2c1CC(=O)OC
The melting point of the first is higher: 247 to 249 °C for the first, 167 to 168 °C for the second.

Compared with `CCCCC(=O)Nc1c(C)c(C)c2c(c1C)C(c1ccc(C(C)C)cc1)CO2` (stereo unspecified), `CCCCOC(=O)/C=C/c1ccc2c(=O)n(CC(C)C)c(CNC(=O)OC(C)(C)C)c(-c3ccc(Cl)cc3)c2c1` is higher in melting point: 128 to 129 °C for the first, 149 to 150 °C for the second.

First: COc1ccc(CN(Cc2ccco2)S(=O)(=O)c2ccc(C(=O)O)cc2)cc1
Second: COc1ccc2c(c1)c(CC(=O)ON(C(N)=O)C(C)c1cc3ccccc3s1)c(C)n2C(=O)c1ccc(Cl)cc1 (stereo unspecified)
The melting point of the first is lower: 151 to 152 °C for the first, 153 to 155 °C for the second.

`CC(C)(C)c1ccc(O)cc1Cl` and `CC(C)(C)c1ccc(O)c(CO)c1` cannot be ordered by melting point: 65 to 67 °C for the first, 65 to 85 °C for the second.

First: CC(C)n1c(=O)nc(-c2ccc3c(c2)OCCO3)c2cc3c(cc21)OCO3
Second: CC(C)C(=O)N[C@@H]1CCc2c(c3cc(C#N)ccc3n2Cc2cccc(F)c2)C1
The melting point of the first is lower: 214 to 217 °C for the first, 223 to 225 °C for the second.

Compared with `COc1ccc(S(N)(=O)=O)cc1C(=O)C(C)Br` (stereo unspecified), `CC(=O)OCC(O)COc1ccc2nc(S(N)(=O)=O)sc2c1` (stereo unspecified) is higher in melting point: 108 to 110 °C for the first, 173 to 175 °C for the second.

First: O=[N+]([O-])c1ccc(OCC#CC#CCOc2ccc([N+](=O)[O-])cc2[N+](=O)[O-])cc1
Second: COC(=O)c1ccccc1Oc1ccc([N+](=O)[O-])cc1
The melting point of the first is higher: 125 °C for the first, 74 °C for the second.

First: Cn1nnc(-c2cccc(Oc3cccc(C(F)(F)F)c3)n2)n1
Second: O=c1[nH]c(=O)n(Cc2cccc(OCc3noc(-c4ccc(C(F)(F)F)cc4)n3)c2)o1
The melting point of the first is lower: 58 to 61 °C for the first, 90 to 91 °C for the second.

`COc1ccccc1-c1nc2cc(NC(=O)c3c(C(=O)O)cnn3C)ccn2n1` and `Cc1c(O)cc(N2C(=O)c3ccccc3C2=O)cc1C(=O)O` cannot be ordered by melting point: 283 °C for the first, greater than 250 °C for the second.

Compared with `Cn1c(=O)cc(CC(=O)O)c2cc(C#N)ccc21`, `CCOCc1cc2ccc(OC)cc2oc1=O` is lower in melting point: 238 °C for the first, 64 to 66 °C for the second.

First: COC(c1ccccc1)c1cc(C(F)(F)F)nc2c(C(F)(F)F)cccc12 (stereo unspecified)
Second: COC(COC(=O)C1=C(C)NC2=C(C(=O)CNC2)C1c1cccc(Cl)c1)c1ccccc1 (stereo unspecified)
The melting point of the first is lower: 115 to 117 °C for the first, 165 to 167 °C for the second.

First: Cc1ccc(C)c(C2=C(O)C(CC3CCS(=O)(=O)CC3)NC2=O)c1 (stereo unspecified)
Second: CN1CCC(OC(=O)N2c3ccccc3NC(=O)c3ccccc32)CC1
The melting point of the first is higher: 244 to 246 °C for the first, 203 to 204 °C for the second.

First: COC(=O)c1nc(Cl)nc(NCc2ccco2)c1Cl
Second: COc1ccc(Cl)cc1-c1n[nH]c(=O)cc1NN
The melting point of the first is lower: 110 to 112 °C for the first, 285 to 290 °C for the second.

First: C=CCNC(=O)NC(CCC)(CCC)CCC
Second: COCCCNC(=O)C(C)(C(C)C)C(C)C
The melting point of the first is higher: 66 °C for the first, 10 °C for the second.

Compared with `O=C1NC(=O)C(c2ccc(N=Cc3ccc(Cl)c(Cl)c3)cc2)S1` (stereo unspecified), `Clc1ccc(N=Cc2ccc(-c3noc4ccccc34)cc2)cc1` is lower in melting point: 216 to 218 °C for the first, 164 to 165 °C for the second.

Compared with `Cc1ccc(S(=O)(=O)Oc2cccnc2)cc1`, `Clc1nc(-c2cccnc2)sc1-c1cccnc1` is higher in melting point: 76 to 78 °C for the first, 145 to 147 °C for the second.

First: Cc1cc(C)c(S(=O)(=O)NCCCCNS(=O)(=O)c2c(C)cc(C)cc2C)c(C)c1
Second: CCn1c(-c2cc(OC)c(OC)cc2S(N)(=O)=O)cc(=Nc2c(C)cc(C)c(S(N)(=O)=O)c2C)n(C)c1=O
The melting point of the first is lower: 156 to 158 °C for the first, 173 to 178 °C for the second.

First: CCCCCCOc1ccc(-c2ccc(OCCCCCCBr)cc2)cc1
Second: CCCCCCCc1ccc(-c2ccc(N)cc2)cc1
The melting point of the first is higher: 103 to 105 °C for the first, 79 °C for the second.

First: CC1(C)NC(=O)N(c2ccc(C#N)c(C(F)(F)F)c2)C1=N
Second: Cc1cc(C)c(N2CCCCC2=O)cc1NS(=O)(=O)C(F)(F)F
The melting point of the first is lower: 228 °C for the first, 260 to 266 °C for the second.

First: Cc1ncc2c(n1)-c1ccccc1N(C(=O)c1ccc([N+](=O)[O-])cc1)CC2
Second: O=[N+]([O-])c1ccc(SCc2cnc3ccccn23)cc1
The melting point of the first is higher: 211 to 212 °C for the first, 174 to 175 °C for the second.

First: C=CCOC(=O)COC(=O)c1c(Br)c(Br)c(C(=O)OCC(=O)OCC=C)c(Br)c1Br
Second: C=CCn1c(C)nc2c3c(c(C(=O)OCC)cc21)CCC1(Cc2ccccc2C1)N3
The melting point of the first is lower: 146 to 148 °C for the first, 150 °C for the second.

Compared with `N#Cc1ccc2c(c1)Sc1cc3c(cc1C=C2)CCC3`, `O=[N+]([O-])c1ccc2c(c1)CCNCC2` is lower in melting point: 142 to 143 °C for the first, 53 to 56 °C for the second.

First: CN1C(=O)C(N)=C(C#N)C1=O
Second: CCOCCOc1cc(N2C(=O)C3=C(CCCC3)C2=O)c(F)cc1C#N
The melting point of the first is higher: 284 °C for the first, 90 °C for the second.

First: C1=CCC(Cc2ccc(-c3ccccc3)cc2)C1
Second: Brc1cccc(-c2ccccc2)n1
The melting point of the first is lower: 47 to 48 °C for the first, 50 °C for the second.

First: CC(=O)NC[C@H]1CN(c2ccc(N3CCC(=C(C#N)n4ccnc4C)CC3)c(F)c2)C(=O)O1
Second: O=C(Nc1ccc(N2CCN(C(=O)Nc3ccc(OCCO)cc3C(F)(F)F)CC2)cc1)Nc1cccc2c1OCC2
The melting point of the first is lower: 204 to 206 °C for the first, 218 to 220 °C for the second.

First: COc1ccccc1C(C#N)(CC1CCCCO1)Cn1cncn1 (stereo unspecified)
Second: CC(C)(C)C(O)(C=Cc1ccc(C2OCCO2)cc1)Cn1cncn1 (stereo unspecified)
The melting point of the first is higher: 120 to 121 °C for the first, 110 °C for the second.

Compared with `COc1cccc([C@H]2O[C@H](CC(=O)Nc3nc(C)c(C(=O)OC(C)(C)C)s3)C(=O)N(CC(C)(C)COC(C)=O)c3ccc(Cl)cc32)c1OC`, `COc1cccc(C(=O)c2c(N)sc3c2CCN(Cc2ccccc2)C3)c1OC` is lower in melting point: 211 to 213 °C for the first, 172 to 173 °C for the second.

First: CC(C)(C)N(NC(=O)c1ccccn1)C(=O)c1ccccc1[N+](=O)[O-]
Second: Cc1cc(=O)c(C(=O)Nc2ccccc2)c(C)o1
The melting point of the first is lower: 137 to 140 °C for the first, 148 to 149 °C for the second.

Compared with `CC(C)(C)OC(=O)N1C(=O)CCC1c1ccc(F)cc1` (stereo unspecified), `CN1C(=O)CC[C@]2(C)c3ccc(C=Cc4cncc5ccccc45)cc3CC[C@@H]12` is higher in melting point: 117 °C for the first, 183 to 185 °C for the second.

First: Cc1nn(-c2ccc3cc(-c4ccc(C(=O)Cl)cc4)oc3c2)nc1-c1ccccc1
Second: Cc1oc(-c2ccccc2)nc1COc1ccc2cc(C/C=C/O)oc2c1
The melting point of the first is higher: 275 °C for the first, 143 to 144 °C for the second.

First: O=C(CO/N=C(\C(=O)O)c1ccco1)NOC(c1ccccc1)c1ccccc1
Second: C[C@@H](O)C1(c2onc(-c3ccc(O)cc3)c2-c2ccccc2)CC1
The melting point of the first is lower: 138 to 140 °C for the first, 213 °C for the second.

First: COc1cc(C(C)O)c([N+](=O)[O-])cc1OC (stereo unspecified)
Second: O=[N+]([O-])c1ccc(F)c(Br)c1O
The melting point of the first is higher: 107 to 108 °C for the first, 65 to 66 °C for the second.

`Cc1cc(C)n(-c2ncc(Cl)c(NC3CCCCC3)n2)n1` and `CC(C)c1nn(-c2ccc(Br)cn2)cc1CCCO` cannot be ordered by melting point: 90 to 99 °C for the first, 96 to 97 °C for the second.

Compared with `c1ccc2c(c1)COC2=N[C@@H]1CCc2ccccc21`, `N[C@@H]1C[C@H]2c3ccccc3-c3cccc(c32)NC1=O` (relative stereo) is higher in melting point: 79 to 80 °C for the first, 104 to 107 °C for the second.

Compared with `O=C(NCCO)c1cccc(-c2cccc3nn(Cc4ccc(F)c(Cl)c4)cc23)c1`, `Cn1nc(-c2cc(C=NOCC(=O)O)c(Cl)cc2F)c(Cl)c1C(F)(F)F` is lower in melting point: 177 to 178 °C for the first, 170 °C for the second.

Compared with `CN1CCN(CCCNc2sc(-c3cc[nH]n3)c3c2C(=O)CC(C)(C)C3)CC1`, `CCC1CC(=O)N(CCc2ccc(N)cc2)N=C1c1ccc(OC)c(OC)c1` (stereo unspecified) is lower in melting point: 160 to 163 °C for the first, 112 °C for the second.

Compared with `O=c1[nH]c(=O)n2c3c1cnn3C(c1cccnc1)=CC2`, `CCOC(=O)c1cc2n(c1)CN(C(=O)OCC)c1ccccc1-2` is lower in melting point: 292 to 295 °C for the first, 80 to 82 °C for the second.

First: OCCON=Cc1ccncc1
Second: CCCN(Cc1ccc(NCCN(CC)CC)c2c(=O)c3ccccc3sc12)S(C)(=O)=O
The melting point of the first is lower: 78 to 80 °C for the first, 142 to 143 °C for the second.

`CC(C)(C)c1cc(C(=O)c2c[nH]c(SC#N)c2SC#N)cc(C(C)(C)C)c1O` showed a melting point of 143 to 144 °C.

Source: a melting point compilation (Tetko et al.; mined from patent text by program, amines drawn as free bases though some values may be those of a salt)
